Patent US12268674B2, “Mi-2β inhibitor as an immunotherapy agent” (BioVentures, LLC, priority 2021, dated 2025)

Columns and labels:
CCT7 = biological target: T1, CCT7 (Homo sapiens, UniProt Q99832); experiment: ATPase profile (ATP acyl phosphate probe); format: binding; details: CCT7, SEQ ID NO: 55, ATP BS
T1 construct: host or cells: A375 cell lysate

[1] = test system: Mi-2β target gene expression in B16F10 cells; experiment: RT-qPCR of Mi-2β target genes in B16F10 cells treated with Z36-MP5; format: cell-based, mouse; details: 25 μM, 24 hours
Method: Z36-MP5 was chosen for further validation and experimental therapeutics in vivo. […] To investigate its cellular inhibitory activity, B16-F10 cells were treated with Z36-MP5 at concentrations ranging from 5 to 100 μM, and the activation of Mi-2β target genes measured by RT-qPCR. Z36-MP5 at 25 μM induced Mi-2β target gene expression including Cxc9, Cxcl10 and Irf1 (FIG. 11c) in B16F10 cells. We also performed the co-culture assays of B16F10 cells with activated Pmel-1 T cells to identify whether Z36-MP5 stimulation can activate T cell mediated cytotoxicity. […] In addition, the pharmacokinetic properties of Z36-MP5 in Sprague-Dawley rats with administration of intraperitoneal injection dose of 1.0 mg/kg.
The total RNA was extracted with QIAGEN RNeasy kit […] for cDNA synthesis with SuperScript II Reverse Transcriptase (Invitrogen). In total, 40 ng cDNA was used for quantitative real-time PCR amplification by TaqMan Gene Expression Master Mix (Thermo Fisher Scientific). The relative transcript levels were normalized with GAPDH expression. The data were calculated with the comparative CT method.

DDX18 = biological target: T2, DDX18 (Homo sapiens, UniProt Q9NVP1); experiment: ATPase profile (ATP acyl phosphate probe); format: binding; details: DDX18, SEQ ID NO: 66, ATP BS
T2 construct: endogenous in cells; host or cells: A375 cell lysate

[2] = biological target: T3, recombinant purified human Mi-2β protein (Homo sapiens, UniProt Q14839); experiment: FRET-based nucleosome repositioning assay (EpiDyne-FRET); format: biochemical
T3 construct: made in house
Method: To screen small molecules that inhibit Mi-2β activity, Homology Modeling was carried out using Structure Prediction Wizard in Prime (49, 50). Mi-2β belongs to the CHD family of chromatin remodelers, which share highly conserved ATPase/helicase domains (51, 52). The Homology Model of Mi-2β was generated using the yeast CHD1 structure (PDB code: 3MWY) as template and the sequence was obtained from Uniprot (53), which clearly depicted the interaction of Mi-2β binding pocket and ATP (FIG. 10a). Virtual screening was done with the enzyme hinge region ligands database and nucleoside mimetic database from Enamine. All ligands of ˜23,010 compounds were docked to the ATP binding site using SP docking and post-processed with Prime MM-GBSA. Ligands with a methyldihydroimidazopyridinone structure were predicted to bind best to the ATP binding region of Mi-2β. To analyze biochemically the inhibitory activity of those inhibitors, a Fluorescence Resonance Energy Transfer (FRET)-based nucleosome repositioning assay (54, 55) was designed and modified using recombinant purified human Mi-2β protein to screen an in-house library of small molecular compounds with a methyldihydroimidazopyridinone structure (FIG. 10b). Briefly, the recombinant nucleosome substrates consist of a Cy5-labeled human histone octamer (H2A T120C-Cy5) wrapped with 5′ Cy3-labeled DNA, which contains a terminal nucleosome 601 positioning sequence. The 601 sequence provides the most thermodynamically preferred locations on DNA for histone octamer (56). FRET signaling was monitored by exciting the nucleosomes at the Cy3 absorption maximum and measuring Cy5 emissions and consequently the FRET signal is at a maximum at the assembled starting point. In the presence of ATP, Mi-2β induces the histone octamer to translocate along the DNA such that the Cy3-labeled DNA 5′ end is moved away from the Cy5-labeled octamer and consequently the FRET signal is decreased (FIG. 10b). The reaction conditions for nucleosome repositioning were modified through multiple rounds of optimization and validation (FIG. 10c-d). […]

SARS = SARS (Homo sapiens, UniProt P49591); format: binding; details: SEQ ID NO: 190, ATP BS
ME2 = biological target: T4, ME2 (Homo sapiens, UniProt P23368); experiment: ATPase profile (ATP acyl phosphate probe); format: binding
T4 construct: to get the native cell lysate; endogenous in cells; host or cells: A375

CMPK1 = biological target: T5, CMPK1 (Homo sapiens, UniProt P30085); experiment: ATPase profile (ATP acyl phosphate probe); format: binding; details: CMPK1, SEQ ID NO: 60, ATP BS
T5 construct: endogenous in cells; host or cells: A375 cell lysate

DDX21 = biological target: T6, DDX21 (Homo sapiens, UniProt Q9NR30); experiment: ATPase profile (ATP acyl phosphate probe); format: binding; details: DDX21, SEQ ID NO: 67, ATP BS
T6 construct: endogenous in cells; host or cells: A375 cell lysate

PSMC2 = PSMC2 (Homo sapiens, UniProt P35998); experiment: ATPase profile (ATP acyl phosphate probe); format: binding; details: PSMC2, SEQ ID NO: 174, ATP BS

T3 sequence (Q14839 whole entry): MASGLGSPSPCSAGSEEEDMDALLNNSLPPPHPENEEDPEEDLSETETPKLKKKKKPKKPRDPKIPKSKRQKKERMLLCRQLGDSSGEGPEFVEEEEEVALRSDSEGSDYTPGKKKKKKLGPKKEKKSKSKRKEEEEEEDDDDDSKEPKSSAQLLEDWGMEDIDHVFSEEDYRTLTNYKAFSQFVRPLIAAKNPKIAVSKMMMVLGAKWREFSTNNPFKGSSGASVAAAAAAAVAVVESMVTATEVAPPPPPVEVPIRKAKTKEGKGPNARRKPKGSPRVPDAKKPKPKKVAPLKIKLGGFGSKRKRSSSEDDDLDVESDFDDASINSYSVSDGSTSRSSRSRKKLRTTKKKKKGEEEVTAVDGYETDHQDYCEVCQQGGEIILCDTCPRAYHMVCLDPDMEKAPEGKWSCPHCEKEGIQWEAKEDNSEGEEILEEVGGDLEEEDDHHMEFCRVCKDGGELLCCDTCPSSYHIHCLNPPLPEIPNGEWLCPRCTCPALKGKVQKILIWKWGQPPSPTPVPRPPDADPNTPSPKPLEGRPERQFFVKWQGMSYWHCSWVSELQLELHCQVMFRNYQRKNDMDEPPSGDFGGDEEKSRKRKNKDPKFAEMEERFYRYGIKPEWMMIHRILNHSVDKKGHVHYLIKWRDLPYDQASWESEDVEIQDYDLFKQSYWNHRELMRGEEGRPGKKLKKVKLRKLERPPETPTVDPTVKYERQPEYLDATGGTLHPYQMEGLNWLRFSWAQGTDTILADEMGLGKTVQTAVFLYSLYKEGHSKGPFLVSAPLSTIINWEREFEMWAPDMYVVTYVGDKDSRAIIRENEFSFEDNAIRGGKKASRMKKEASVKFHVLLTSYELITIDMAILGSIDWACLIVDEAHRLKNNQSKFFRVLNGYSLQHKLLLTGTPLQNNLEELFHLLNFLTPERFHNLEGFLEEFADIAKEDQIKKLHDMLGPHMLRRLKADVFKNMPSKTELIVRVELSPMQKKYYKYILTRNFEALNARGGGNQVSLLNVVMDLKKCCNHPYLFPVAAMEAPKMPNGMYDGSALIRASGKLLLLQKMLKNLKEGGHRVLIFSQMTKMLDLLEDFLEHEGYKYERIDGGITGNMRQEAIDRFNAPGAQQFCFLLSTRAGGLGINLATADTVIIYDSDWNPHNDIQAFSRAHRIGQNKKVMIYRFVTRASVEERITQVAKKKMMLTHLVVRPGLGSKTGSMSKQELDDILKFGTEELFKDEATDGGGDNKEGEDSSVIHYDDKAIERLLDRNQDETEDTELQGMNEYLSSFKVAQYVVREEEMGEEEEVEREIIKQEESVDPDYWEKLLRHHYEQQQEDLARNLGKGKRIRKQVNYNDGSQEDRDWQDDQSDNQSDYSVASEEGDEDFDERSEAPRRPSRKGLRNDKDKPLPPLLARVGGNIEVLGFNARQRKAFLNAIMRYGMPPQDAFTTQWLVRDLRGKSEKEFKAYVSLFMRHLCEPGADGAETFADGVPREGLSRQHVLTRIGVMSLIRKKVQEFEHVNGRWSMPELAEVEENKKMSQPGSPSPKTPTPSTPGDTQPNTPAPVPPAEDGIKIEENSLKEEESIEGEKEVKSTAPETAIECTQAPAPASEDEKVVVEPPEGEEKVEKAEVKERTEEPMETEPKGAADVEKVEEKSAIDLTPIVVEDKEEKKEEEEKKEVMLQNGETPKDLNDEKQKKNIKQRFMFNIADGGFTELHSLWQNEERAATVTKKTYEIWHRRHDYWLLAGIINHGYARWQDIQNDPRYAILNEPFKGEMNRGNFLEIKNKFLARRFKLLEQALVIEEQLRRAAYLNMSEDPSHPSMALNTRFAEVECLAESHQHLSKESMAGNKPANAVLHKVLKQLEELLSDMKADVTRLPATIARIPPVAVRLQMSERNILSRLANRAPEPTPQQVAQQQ
T4 sequence (P23368 19-584): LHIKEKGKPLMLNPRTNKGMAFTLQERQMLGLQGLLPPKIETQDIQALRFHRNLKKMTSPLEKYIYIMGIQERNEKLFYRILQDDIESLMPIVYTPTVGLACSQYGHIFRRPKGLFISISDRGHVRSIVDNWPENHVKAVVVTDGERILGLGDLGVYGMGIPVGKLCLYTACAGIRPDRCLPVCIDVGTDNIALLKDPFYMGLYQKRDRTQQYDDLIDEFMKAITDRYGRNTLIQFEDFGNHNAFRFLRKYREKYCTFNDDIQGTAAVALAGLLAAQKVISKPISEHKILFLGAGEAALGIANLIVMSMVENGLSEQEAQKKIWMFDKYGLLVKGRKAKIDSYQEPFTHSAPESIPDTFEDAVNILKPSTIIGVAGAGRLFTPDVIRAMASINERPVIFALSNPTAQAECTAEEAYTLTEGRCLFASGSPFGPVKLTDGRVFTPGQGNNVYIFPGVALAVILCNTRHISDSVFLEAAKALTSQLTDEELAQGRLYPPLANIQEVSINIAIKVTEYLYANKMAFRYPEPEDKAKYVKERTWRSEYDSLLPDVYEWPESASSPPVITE
T5 sequence (P30085 whole entry): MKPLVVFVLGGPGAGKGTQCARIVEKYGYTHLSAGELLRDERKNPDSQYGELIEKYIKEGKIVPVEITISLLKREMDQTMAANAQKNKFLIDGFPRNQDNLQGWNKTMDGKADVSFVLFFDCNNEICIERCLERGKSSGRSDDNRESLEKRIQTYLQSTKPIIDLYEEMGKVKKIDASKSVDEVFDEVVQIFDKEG
T6 sequence (Q9NR30 whole entry): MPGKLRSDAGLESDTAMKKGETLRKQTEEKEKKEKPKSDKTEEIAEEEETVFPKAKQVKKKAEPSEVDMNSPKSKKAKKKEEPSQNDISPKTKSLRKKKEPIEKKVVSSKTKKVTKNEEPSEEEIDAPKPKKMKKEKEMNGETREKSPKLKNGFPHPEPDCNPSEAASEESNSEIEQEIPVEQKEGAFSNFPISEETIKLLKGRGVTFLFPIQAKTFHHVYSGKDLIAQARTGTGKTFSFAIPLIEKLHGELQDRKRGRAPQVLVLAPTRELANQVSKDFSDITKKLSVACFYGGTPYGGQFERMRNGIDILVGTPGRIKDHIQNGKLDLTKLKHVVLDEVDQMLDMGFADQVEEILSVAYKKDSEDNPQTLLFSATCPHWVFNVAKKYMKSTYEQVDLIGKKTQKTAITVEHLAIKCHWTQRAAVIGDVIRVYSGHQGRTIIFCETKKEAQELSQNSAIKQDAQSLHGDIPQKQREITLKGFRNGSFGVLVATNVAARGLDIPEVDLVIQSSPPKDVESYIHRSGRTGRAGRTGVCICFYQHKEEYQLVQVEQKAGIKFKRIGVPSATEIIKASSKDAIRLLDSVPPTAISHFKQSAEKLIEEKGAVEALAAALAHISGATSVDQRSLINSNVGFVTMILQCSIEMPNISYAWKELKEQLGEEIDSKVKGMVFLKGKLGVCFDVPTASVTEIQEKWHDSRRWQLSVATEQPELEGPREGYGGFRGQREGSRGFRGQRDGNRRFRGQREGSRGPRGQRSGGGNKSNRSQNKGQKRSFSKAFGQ
T2 sequence (Q9NVP1 whole entry): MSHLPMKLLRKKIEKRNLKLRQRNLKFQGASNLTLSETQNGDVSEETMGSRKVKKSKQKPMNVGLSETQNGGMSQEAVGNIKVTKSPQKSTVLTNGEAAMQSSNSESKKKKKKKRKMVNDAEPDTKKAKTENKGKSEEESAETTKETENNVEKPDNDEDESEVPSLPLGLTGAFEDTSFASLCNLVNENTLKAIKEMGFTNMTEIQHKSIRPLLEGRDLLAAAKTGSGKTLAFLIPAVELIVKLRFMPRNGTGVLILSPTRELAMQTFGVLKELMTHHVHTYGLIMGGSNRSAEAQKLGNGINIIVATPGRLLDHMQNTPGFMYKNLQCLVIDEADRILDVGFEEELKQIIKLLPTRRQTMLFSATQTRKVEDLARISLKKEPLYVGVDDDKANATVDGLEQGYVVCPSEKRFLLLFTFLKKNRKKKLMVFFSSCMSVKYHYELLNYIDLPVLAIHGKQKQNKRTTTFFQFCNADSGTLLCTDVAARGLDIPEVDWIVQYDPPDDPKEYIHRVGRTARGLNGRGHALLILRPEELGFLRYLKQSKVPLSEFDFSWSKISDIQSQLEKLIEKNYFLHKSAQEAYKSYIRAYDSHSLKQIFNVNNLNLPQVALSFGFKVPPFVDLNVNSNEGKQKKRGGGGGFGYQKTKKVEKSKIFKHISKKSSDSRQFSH
Sequence of SARS (P49591 whole entry, looked up): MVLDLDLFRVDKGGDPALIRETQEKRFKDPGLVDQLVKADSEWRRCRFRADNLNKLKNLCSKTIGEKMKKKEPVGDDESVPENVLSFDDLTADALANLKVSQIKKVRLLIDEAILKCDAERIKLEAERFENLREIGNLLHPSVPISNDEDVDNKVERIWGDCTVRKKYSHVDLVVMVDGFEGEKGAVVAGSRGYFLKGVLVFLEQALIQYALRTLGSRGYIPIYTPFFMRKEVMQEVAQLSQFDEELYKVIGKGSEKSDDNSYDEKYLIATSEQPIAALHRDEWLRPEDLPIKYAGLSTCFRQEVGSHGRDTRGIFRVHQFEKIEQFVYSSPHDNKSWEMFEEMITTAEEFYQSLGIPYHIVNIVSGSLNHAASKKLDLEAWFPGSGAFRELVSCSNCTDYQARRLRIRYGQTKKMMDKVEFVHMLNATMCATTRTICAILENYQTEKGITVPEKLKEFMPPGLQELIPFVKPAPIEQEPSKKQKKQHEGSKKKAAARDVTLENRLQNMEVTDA

Cn1c(=O)[nH]c2ccc(-c3cccc(C(=O)NC4CCn5ccnc5C4)c3)cc21 (centres unmarked) [Z36-MP5, 3-(3-methyl-2-oxo-2,3-dihydro-1H-benzo[d]imidazol-5-yl)-N-(5,6,7,8-tetrahydroimidazo[1,2-a]pyridin-7-yl)benzamide]
Inhibition (%) by 1 μM Z36-MP5 (CCT7): 10.91% | Mi-2β target gene expression including Cxc9, Cxcl10 and Irf1 [1]: induced | Inhibition (%) by 1 μM Z36-MP5 (DDX18): −5.33% | IC50 ([2]; FRET-based nucleosome repositioning assay, read-out: IC50 against Mi-2β): 82 ± 13 nM | fold more potent than the original compound Z36 ([2]; ratio of IC50 against Mi-2β): ~85 fold | Inhibition (%) by 1 μM Z36-MP5 (SARS): 3.57% | Inhibition (%) by 1 μM Z36-MP5 (ME2; ME2, SEQ ID NO: 122, ATP BS): −6.47% | Inhibition (%) by 1 μM Z36-MP5 (ME2; ME2, SEQ ID NO: 123, ATP BS): −16.71% | Inhibition (%) by 1 μM Z36-MP5 (CMPK1): 2.41% | Inhibition (%) by 1 μM Z36-MP5 (DDX21): 3.05% | Inhibition (%) by 1 μM Z36-MP5 (PSMC2): −6.44%
